Measurements from patent US3947584A, “Novel indolyl alkyl amines, method of producing same, and their use as anorectic agents” (Siegfried Aktiengesellschaft, priority 1972, dated 1976).

Tests used:
[1] = tested on: Rat; test: Anorexia, single oral application in rat (ED 50); type: in vivo; details: dissolved in equivalent quantities of HCl
Text: (§1) The first column gives the respective two alkyl groups which are fixed in the α-position to the otherwise unsubstituted tryptamines.

[2] = Toxicity, single oral application in mouse (LD 50); details: in vivo, dissolved in equivalent quantities of HCl
Text: as §1

[3] = tested on: Mouse / Rat; test: Therapeutic index (LD 50 mouse, oral / ED 50 rat, oral); type: in vivo
Text: as §1

[4] = Solubility; details: in usual alcohols and in water; hydrochloride

With `CCC(C)(N)Cc1c[nH]c2ccccc12` (stereo not shown) [Methyl, ethyl, 3-(2'-amino-2'-methylbutyl)-indole] the ED50 [1] was 15 mg/kg, the LD50 [2] was 700 mg/kg and the “Therapeutic Index (LD 50 / ED 50)” value [3] was 47.

In the case of `CCC(C)(N)Cc1c[nH]c2ccccc12` (stereo not shown) [Example 3, 3-(2'-amino-2'-methylbutyl)-indole], the solubility [4] is reported as “soluble very satisfactorily in usual alcohols and in water”.

In the case of `CCCC(C)(N)Cc1c[nH]c2ccccc12` (stereo not shown) [Methyl, propyl, 3-(2'-methyl-2'-aminopentyl)-indole], the ED50 [1] is reported as ~50 mg/kg, the LD50 [2] is reported as 530 mg/kg and the “Therapeutic Index (LD 50 / ED 50)” value [3] is reported as “approx. 11”.

With `CCC(N)(CC)Cc1c[nH]c2ccccc12` [Ethyl, ethyl, 3-(2'-ethyl-2'-aminobutyl)-indole] the ED50 [1] was > 50 mg/kg, the LD50 [2] was 620 mg/kg and the “Therapeutic Index (LD 50 / ED 50)” value [3] was < 12.

In the case of `CCCC(N)(CCC)Cc1c[nH]c2ccccc12` [Propyl, propyl, 3-(2'-propyl-2'-aminopentyl)-indole], the ED50 [1] is reported as > 50 mg/kg, the LD50 [2] is reported as 900 mg/kg and the “Therapeutic Index (LD 50 / ED 50)” value [3] is reported as < 18.

With `CC(C)(N)Cc1c[nH]c2ccccc12` [Methyl, methyl, α,α-dimethyl tryptamine, reference compound] the ED50 [1] was 36 mg/kg, the LD50 [2] was 320 mg/kg and the “Therapeutic Index (LD 50 / ED 50)” value [3] was 9.
